Measured values taken from the NIST ThermoML archive (doi:10.1021/je049932z).
± gives the expanded uncertainty stated by the source.

Key:
[1] = 293.15 K
[2] = wn = mass fraction of the nth substance listed; details: 293.15 K; for mass density / viscosity: 101.3 kPa, Liquid

CCOCCOCCOCC [diethylene glycol diethyl ether]
surface tension liquid-gas [1]: 29.27 ± 1.6 mN/m
mass density ([1]; 101.3 kPa, Liquid): 907.3 ± 4.2 kg/m3
viscosity ([1]; 101.3 kPa, Liquid): 1.346 ± 0.042 mPa·s

CCOCCOCCOCC [diethylene glycol diethyl ether] + O
surface tension liquid-gas ([2]; w1 = 0.0033): 69.73 ± 2.8 mN/m
surface tension liquid-gas ([2]; w1 = 0.00984): 66.53 ± 2.7 mN/m
surface tension liquid-gas ([2]; w1 = 0.01771): 56.82 ± 2.4 mN/m
surface tension liquid-gas ([2]; w1 = 0.03207): 45.57 ± 2.1 mN/m
surface tension liquid-gas ([2]; w1 = 0.05896): 36.39 ± 1.8 mN/m
surface tension liquid-gas ([2]; w1 = 0.1611): 35.71 ± 1.8 mN/m
surface tension liquid-gas ([2]; w1 = 0.2547): 34.92 ± 1.8 mN/m
surface tension liquid-gas ([2]; w1 = 0.3578): 34.11 ± 1.8 mN/m
surface tension liquid-gas ([2]; w1 = 0.4474): 32.3 ± 1.7 mN/m
surface tension liquid-gas ([2]; w1 = 0.5769): 30.54 ± 1.7 mN/m
surface tension liquid-gas ([2]; w1 = 0.6385): 30.21 ± 1.6 mN/m
surface tension liquid-gas ([2]; w1 = 0.7794): 30.46 ± 1.6 mN/m
surface tension liquid-gas ([2]; w1 = 0.8549): 30.2 ± 1.6 mN/m
surface tension liquid-gas ([2]; w1 = 0.9401): 30.01 ± 1.6 mN/m
surface tension liquid-gas ([2]; w1 = 1): 29.27 ± 1.6 mN/m
mass density ([2]; w1 = 0.05896): 996.7 ± 4.8 kg/m3
viscosity ([2]; w1 = 0.05896): 1.18 ± 0.037 mPa·s
mass density ([2]; w1 = 0.07683): 996.9 ± 4.8 kg/m3
viscosity ([2]; w1 = 0.07683): 1.265 ± 0.039 mPa·s
mass density ([2]; w1 = 0.1038): 997.1 ± 4.8 kg/m3
viscosity ([2]; w1 = 0.1038): 1.451 ± 0.044 mPa·s
mass density ([2]; w1 = 0.1227): 997.2 ± 4.8 kg/m3
viscosity ([2]; w1 = 0.1227): 1.551 ± 0.047 mPa·s
mass density ([2]; w1 = 0.1425): 998.2 ± 4.8 kg/m3
viscosity ([2]; w1 = 0.1425): 1.701 ± 0.051 mPa·s
mass density ([2]; w1 = 0.1611): 998.5 ± 4.8 kg/m3
viscosity ([2]; w1 = 0.1611): 1.839 ± 0.055 mPa·s
mass density ([2]; w1 = 0.1951): 998.6 ± 4.8 kg/m3
viscosity ([2]; w1 = 0.1951): 2.149 ± 0.063 mPa·s
mass density ([2]; w1 = 0.2207): 999.3 ± 4.8 kg/m3
viscosity ([2]; w1 = 0.2207): 2.414 ± 0.071 mPa·s
mass density ([2]; w1 = 0.2547): 999.1 ± 4.8 kg/m3
viscosity ([2]; w1 = 0.2547): 2.707 ± 0.079 mPa·s
mass density ([2]; w1 = 0.2828): 999.8 ± 4.8 kg/m3
viscosity ([2]; w1 = 0.2828): 2.961 ± 0.086 mPa·s
mass density ([2]; w1 = 0.3185): 999.5 ± 4.8 kg/m3
viscosity ([2]; w1 = 0.3185): 3.302 ± 0.095 mPa·s
mass density ([2]; w1 = 0.3578): 999.1 ± 4.8 kg/m3
viscosity ([2]; w1 = 0.3578): 3.637 ± 0.1 mPa·s
mass density ([2]; w1 = 0.3773): 996.6 ± 4.8 kg/m3
viscosity ([2]; w1 = 0.3773): 3.781 ± 0.11 mPa·s
mass density ([2]; w1 = 0.4231): 994.6 ± 4.8 kg/m3
viscosity ([2]; w1 = 0.4231): 4.088 ± 0.12 mPa·s
mass density ([2]; w1 = 0.4474): 993.1 ± 4.8 kg/m3
viscosity ([2]; w1 = 0.4474): 4.218 ± 0.12 mPa·s
mass density ([2]; w1 = 0.5151): 989 ± 4.7 kg/m3
viscosity ([2]; w1 = 0.5151): 4.462 ± 0.13 mPa·s
mass density ([2]; w1 = 0.5769): 981.1 ± 4.7 kg/m3
viscosity ([2]; w1 = 0.5769): 4.452 ± 0.13 mPa·s
mass density ([2]; w1 = 0.6029): 979.1 ± 4.7 kg/m3
viscosity ([2]; w1 = 0.6029): 4.403 ± 0.12 mPa·s
mass density ([2]; w1 = 0.6385): 973.1 ± 4.6 kg/m3
viscosity ([2]; w1 = 0.6385): 4.27 ± 0.12 mPa·s
mass density ([2]; w1 = 0.6814): 966.4 ± 4.6 kg/m3
viscosity ([2]; w1 = 0.6814): 4.033 ± 0.12 mPa·s
mass density ([2]; w1 = 0.7256): 960.1 ± 4.6 kg/m3
viscosity ([2]; w1 = 0.7256): 3.741 ± 0.11 mPa·s
mass density ([2]; w1 = 0.7794): 949.6 ± 4.5 kg/m3
viscosity ([2]; w1 = 0.7794): 3.189 ± 0.092 mPa·s
mass density ([2]; w1 = 0.8549): 940.7 ± 4.4 kg/m3
viscosity ([2]; w1 = 0.8549): 2.599 ± 0.076 mPa·s
mass density ([2]; w1 = 0.9195): 926.2 ± 4.3 kg/m3
viscosity ([2]; w1 = 0.9195): 1.943 ± 0.058 mPa·s
mass density ([2]; w1 = 0.9401): 920.7 ± 4.3 kg/m3
viscosity ([2]; w1 = 0.9401): 1.75 ± 0.05 mPa·s
mass density ([2]; w1 = 0.9769): 912.8 ± 4.3 kg/m3
viscosity ([2]; w1 = 0.9769): 1.467 ± 0.045 mPa·s
mass density ([2]; w1 = 1): 907.3 ± 4.2 kg/m3
viscosity ([2]; w1 = 1): 1.346 ± 0.042 mPa·s

O [water]
surface tension liquid-gas [1]: 72.75 ± 2.8 mN/m
viscosity ([1]; 101.3 kPa, Liquid): 1.002 ± 0.032 mPa·s

O [water] + CCOCCOCCOCC
surface tension liquid-gas ([2]; w2 = 0): 72.75 ± 2.8 mN/m
mass density ([2]; w2 = 0): 997.2 ± 4.8 kg/m3
viscosity ([2]; w2 = 0): 1.002 ± 0.032 mPa·s
